Assay results: ChEMBL document CHEMBL1154159, “Didanosine ester prodrugs: synthesis, albumin binding properties and pharmacokinetic studies in rats” (Eur J Med Chem, 2009)

Experiments:
[1] = Chemical stability in phosphate buffered saline assessed as compound degradation at 0.05 M at pH 7.4 at 5 degC after 1 hr by HPLC; format: physicochemical; details: buffer, pH 7.4, 1 h
[2] = Chemical stability in phosphate buffered saline assessed as compound degradation at 0.05 M at pH 7.4 at 40 degC after 1 hr by HPLC; format: physicochemical; details: buffer, pH 7.4, 1 h
[3] = Chemical stability in phosphate buffered saline assessed as compound degradation at 0.05 M at pH 7.4 at 5 to 40 degC after 14 days by HPLC; format: physicochemical; details: buffer, pH 7.4, 336 h
[4] = Chemical stability in phosphate buffered saline assessed as compound degradation at 0.05 M at pH 7.4 at 25 degC after 1 hr by HPLC; format: physicochemical; details: buffer, pH 7.4, 1 h
[5] = AUC (0 to 360 mins) in Rowet nu/nu rat plasma at 15 mg/kg, iv after 5 mins to 6 hrs; format: ADME, organism-based; set-up: time < 6 hr, dose 15 mg/kg, route intravenous
[6] = Clearance in Rowet nu/nu rat plasma at 15 mg/kg, iv after 5 mins to 6 hrs; format: ADME, organism-based; set-up: dose 15 mg/kg, route intravenous
[7] = Half life in rat at 125 mg/kg/hr, iv after 2 hrs; format: ADME, organism-based; set-up: route intravenous; details: in vivo
[8] = AUC (0 to 360 mins) in Rowet nu/nu rat plasma at […], iv after 5 mins to 6 hrs; format: ADME, organism-based; set-up: time < 6 hr, route intravenous
[9] = Clearance in Rowet nu/nu rat plasma at […], iv after 5 mins to 6 hrs; format: ADME, organism-based

Stability [1]	Stability [2]	Stability [3]	Stability [4]	AUC(0-t) at 6 h [5] [ng·h/mL]	clearance [6] [mL/min/kg]	half-life [7] [min]	AUC(0-t) at 6 h [8] [ng·h/mL]	clearance [9] [mL/min/kg]	Compound
Stable	Stable	Unstable	Stable						O=C(O)CCCCCCCCCCC(=O)OC[C@H]1CC[C@@H](n2cnc3c(=O)[nH]cnc32)O1
Stable	Stable	Unstable	Stable						O=C(O)CCCCC(=O)OC[C@H]1CC[C@@H](n2cnc3c(=O)[nH]cnc32)O1
Stable	Stable	Unstable	Stable	2680	107				O=C(O)CCCCCCCC(=O)OC[C@H]1CC[C@@H](n2cnc3c(=O)[nH]cnc32)O1
						60	2100	134	O=c1[nH]cnc2c1ncn2[C@H]1CC[C@@H](CO)O1 [DIDANOSINE]
